Patent US11629171B2, “Beta-hairpin peptidomimetics” (POLYPHOR AG, priority 2017, dated 2023)
Values after ≈ are worked out from the molar mass of the structure shown. Where a SMILES comes first, the peptide text is derived from it. Bridges are numbered along the chain shown (N, C = ends). Roman numbers before positions name the chains, in order. [ ]: non-standard residue; d: D form. Thr(ol) = C[C@@H](O)[C@H](N)CO; Tle = CC(C)(C)[C@H](N)C(=O)O; Hiv = CC(C)[C@H](O)C(=O)O; dDab = NCC[C@@H](N)C(=O)O; hSer = N[C@@H](CCO)C(=O)O; Dab = NCC[C@H](N)C(=O)O; Dap = NC[C@H](N)C(=O)O

What was measured:
Format in all cases: cell-based
[1] = tested on: human red blood cells (hRBC); test: Hemolysis; conditions: red cells of human, 1 h, 200
Procedure, shortened: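 hRBC washed 4× in PBS; 200 μg/mL peptide + 20% (v/v) hRBC, 1 h, 37° C, 300 rpm. Spin, supernatant ~7.5-fold diluted, OD540 blank corrected. % hemolysis = OD540 peptide / OD540 Triton X-100 × 100.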

[2] = tested on: Escherichia coli ATCC 25922; conditions: ATCC 25922
Procedure, shortened: (§1)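 Visible-growth endpoint after 18-20 h at 35° C defines the MIC (μg/mL). Setup: CLSI broth microdilution, MH-II cation-adjusted broth with P-80 at 0.002% final, inoculum of approximately 10^6 CFU/mL, two-fold serial peptide dilutions.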

[3] = tested on: Klebsiella pneumoniae 968733; conditions: 968733
Procedure, shortened: as §1

[4] = tested on: Acinetobacter baumannii 872842; conditions: 872842
Procedure, shortened: as §1

[5] = tested on: Klebsiella pneumoniae SSI #3010; conditions: SSI #3010
Procedure, shortened: as §1

[6] = tested on: Pseudomonas aeruginosa ATCC 27853; conditions: ATCC 27853
Procedure, shortened: as §1

[7] = tested on: Acinetobacter baumannii DSM 30008; conditions: DSM 30008
Procedure, shortened: as §1

[8] = tested on: Enterobacter cloacae 848840; conditions: 848840
Procedure, shortened: as §1

[9] = tested on: Escherichia coli 926415; conditions: 926415
Procedure, shortened: as §1

| SMILES | MIC [2] [µg/mL] | MIC [3] [µg/mL] | MIC [4] [µg/mL] | MIC [5] [µg/mL] | MIC [6] [µg/mL] | MIC [7] [µg/mL] | MIC [8] [µg/mL] | MIC [9] [µg/mL] | Escherichia coli ATCC 25922 MIC [2] [µg/mL] | Klebsiella pneumoniae SSI #3010 MIC [5] [µg/mL] | Pseudomonas aeruginosa ATCC 27853 MIC [6] [µg/mL] | Acinetobacter baumannii DSM 30008 MIC [7] [µg/mL] | Hemolysis at 200 μg/mL [1] [%] |
| --- | --- | --- | --- | --- | --- | --- | --- | --- | --- | --- | --- | --- | --- |
| CC(=O)N[C@H](C(=O)N[C@H]1CSSC[C@@H](C(=O)N[C@@H](CO)C(=O)N[C@@H](CC(=O)O)C(N)=O)NC(=O)[C@H](C(C)C)NC(=O)[C@H](CO)NC(=O)[C@H](Cc2c[nH]c3ccccc23)NC(=O)[C@H](CCN)NC(=O)[C@@H](CCN)NC(=O)[C@H](CCC(=O)N[C@@H](CCN)C(=O)N[C@H](C(=O)N[C@@H](CN)C(=O)N[C@H]2CCNC(=O)[C@H]([C@@H](C)O)NC(=O)[C@H](CCN)NC(=O)[C@H](CCN)NC(=O)[C@H](CC(C)C)NC(=O)[C@@H](CC(C)C)NC(=O)[C@H](CCN)NC2=O)[C@@H](C)O)NC(=O)[C@H](CO)NC(=O)[C@H](Cc2ccc(O)cc2)NC1=O)C(C)C [Ex. 371] (I: Ac-VCYSE[dDab][Dab]WSVCSD-NH2 / II: [Dab]T[Dap][Dab][Dab][dL]L[Dab][Dab]T; disulfide I:2-I:11; amide I:5-II:N; lactam II:4-II:C) |  | 0.5 (≈ 0.199 µM) | 0.0625 (≈ 0.0249 µM) |  |  |  | 0.5 (≈ 0.199 µM) | 0.25 (≈ 0.0994 µM) | 0.0625 | 0.0625 | 0.0625 | 0.0625 | 0 |
| CC(=O)N[C@H](C(=O)N[C@H]1CCNC(=O)CC[C@@H](C(=O)N[C@@H](CO)C(N)=O)NC(=O)[C@H](C(C)C)NC(=O)[C@H](CO)NC(=O)[C@H](Cc2c[nH]c3ccccc23)NC(=O)CNC(=O)[C@@H](CCN)NC(=O)[C@H](CCC(=O)N[C@@H](CCN)C(=O)N[C@H](C(=O)N[C@@H](CN)C(=O)N[C@H]2CCNC(=O)[C@H]([C@@H](C)O)NC(=O)[C@H](CCN)NC(=O)[C@H](CCN)NC(=O)[C@H](CC(C)C)NC(=O)[C@@H](CC(C)C)NC(=O)[C@H](CCN)NC2=O)[C@@H](C)O)NC(=O)[C@H](CCN)NC(=O)[C@H](Cc2ccc(O)cc2)NC1=O)C(C)C [Ex. 349] (I: Ac-V[Dab]Y[Dab]E[dDab]GWSVES-NH2 / II: [Dab]T[Dap][Dab][Dab][dL]L[Dab][Dab]T; lactam I:2-I:11, II:4-II:C; amide I:5-II:N) |  | 0.25 (≈ 0.105 µM) | 0.25 (≈ 0.105 µM) |  |  |  | 0.25 (≈ 0.105 µM) | 0.25 (≈ 0.105 µM) | 0.0625 | 0.125 | 0.125 | 0.0625 | <1 |
| CC(=O)N[C@@H](CC(C)C)C(=O)N[C@H]1CSSC[C@@H](C(=O)N[C@@H](CO)C(N)=O)NC(=O)[C@H](C(C)(C)C)NC(=O)[C@H](CCN)NC(=O)[C@H](Cc2c[nH]c3ccccc23)NC(=O)[C@H](CCN)NC(=O)[C@@H](CCN)NC(=O)[C@H](CCC(=O)N[C@@H](CCN)C(=O)N[C@H](C(=O)N[C@@H](CCN)C(=O)N[C@H]2CCNC(=O)[C@H]([C@@H](C)O)NC(=O)[C@H](CCN)NC(=O)[C@H](CCN)NC(=O)[C@H](CC(C)C)NC(=O)[C@@H](CC(C)C)NC(=O)[C@H](CCN)NC2=O)[C@@H](C)O)NC(=O)[C@H](CCN)NC(=O)[C@H](Cc2ccc(O)cc2)NC1=O [Ex. 352] (I: Ac-LCY[Dab]E[dDab][Dab]W[Dab][Tle]CS-NH2 / II: [Dab]T[Dab][Dab][Dab][dL]L[Dab][Dab]T; disulfide I:2-I:11; amide I:5-II:N; lactam II:4-II:C) |  | 0.5 (≈ 0.203 µM) | 4 (≈ 1.62 µM) |  |  |  | 8 (≈ 3.24 µM) | 0.25 (≈ 0.101 µM) | 0.125 | 0.125 | 0.25 | 1 | <1 |

Second part, led by results:

| MIC [2] [µg/mL] | MIC [3] [µg/mL] | MIC [4] [µg/mL] | MIC [5] [µg/mL] | MIC [6] [µg/mL] | MIC [7] [µg/mL] | MIC [8] [µg/mL] | MIC [9] [µg/mL] | Escherichia coli ATCC 25922 MIC [2] [µg/mL] | Klebsiella pneumoniae SSI #3010 MIC [5] [µg/mL] | Pseudomonas aeruginosa ATCC 27853 MIC [6] [µg/mL] | Acinetobacter baumannii DSM 30008 MIC [7] [µg/mL] | SMILES | Hemolysis at 200 μg/mL [1] [%] |
| --- | --- | --- | --- | --- | --- | --- | --- | --- | --- | --- | --- | --- | --- |
| 0.0625 (≈ 0.0258 µM) | 0.5 (≈ 0.206 µM) | 0.25 (≈ 0.103 µM) | 0.125 (≈ 0.0515 µM) | 0.125 (≈ 0.0515 µM) | 0.0625 (≈ 0.0258 µM) | 0.25 (≈ 0.103 µM) | 0.5 (≈ 0.206 µM) |  |  |  |  | CC(=O)N[C@H](C(=O)N[C@H]1CSSC[C@@H](C(=O)N[C@@H](CO)C(N)=O)NC(=O)[C@H](C(C)C)NC(=O)[C@H](CO)NC(=O)[C@H](Cc2c[nH]c3ccccc23)NC(=O)[C@H]([C@@H](C)O)NC(=O)[C@@H](CCN)NC(=O)[C@H](CCC(=O)N[C@@H](CCN)C(=O)N[C@H](C(=O)N[C@@H](CCN)C(=O)N[C@H]2CCNC(=O)[C@H]([C@@H](C)O)NC(=O)[C@H](CCN)NC(=O)[C@H](CCN)NC(=O)[C@H](CC(C)C)NC(=O)[C@@H](CC(C)C)NC(=O)[C@H](CCN)NC2=O)[C@@H](C)O)NC(=O)[C@H](CCN)NC(=O)[C@H](Cc2ccc(O)cc2)NC1=O)C(C)C [Ex. 45] (I: Ac-VCY[Dab]E[dDab]TWSVCS-NH2 / II: [Dab]T[Dab][Dab][Dab][dL]L[Dab][Dab]T; disulfide I:2-I:11; amide I:5-II:N; lactam II:4-II:C) | <1 |
| 0.0625 (≈ 0.0256 µM) | 4 (≈ 1.64 µM) | 0.5 (≈ 0.205 µM) | 0.125 (≈ 0.0512 µM) | 0.25 (≈ 0.102 µM) | 0.0625 (≈ 0.0256 µM) | 0.5 (≈ 0.205 µM) | 1 (≈ 0.409 µM) |  |  |  |  | CC(C)C[C@@H]1NC(=O)[C@@H](CC(C)C)NC(=O)[C@H](CCN)NC(=O)[C@@H](NC(=O)[C@H](CCN)NC(=O)[C@@H](NC(=O)[C@H](CCN)NC(=O)CC[C@@H]2NC(=O)[C@@H](NC(=O)[C@H](Cc3ccc(O)cc3)NC(=O)[C@H](CCC(=O)O)NC(=O)[C@@H](O)C(C)C)CSSC[C@@H](C(=O)N[C@H](C(=O)N[C@@H](CCN)C(=O)N[C@H](CO)[C@@H](C)O)C(C)(C)C)NC(=O)[C@H](Cc3c[nH]c4ccccc34)NC(=O)[C@H]([C@@H](C)O)NC(=O)[C@@H](CCN)NC2=O)[C@@H](C)O)CCNC(=O)[C@H]([C@@H](C)O)NC(=O)[C@H](CCN)NC(=O)[C@H](CCN)NC1=O [Ex. 190] (I: H-[Hiv]EYCE[dDab]TWC[Tle][Dab][Thr(ol)] / II: [Dab]T[Dab][Dab][Dab][dL]L[Dab][Dab]T; disulfide I:4-I:9; amide I:5-II:N; lactam II:4-II:C) | <1 |
| 0.03125 (≈ 0.0131 µM) | 0.125 (≈ 0.0524 µM) | 0.0625 (≈ 0.0262 µM) | 0.125 (≈ 0.0524 µM) | 0.125 (≈ 0.0524 µM) | 0.125 (≈ 0.0524 µM) | 0.125 (≈ 0.0524 µM) | 0.0625 (≈ 0.0262 µM) |  |  |  |  | CC(C)C[C@@H]1NC(=O)[C@@H](CC(C)C)NC(=O)[C@H](CCN)NC(=O)[C@@H](NC(=O)[C@H](CCN)NC(=O)[C@@H](NC(=O)[C@H](CCN)NC(=O)CC[C@@H]2NC(=O)[C@H](CCN)NC(=O)[C@H](Cc3ccc(O)cc3)NC(=O)[C@@H](NC(=O)[C@@H](O)C(C)C)CSSC[C@@H](C(=O)N[C@H](CO)[C@@H](C)O)NC(=O)[C@H](C(C)(C)C)NC(=O)[C@H](CO)NC(=O)[C@H](Cc3c[nH]c4ccccc34)NC(=O)[C@H](CO)NC(=O)[C@@H](CCN)NC2=O)[C@@H](C)O)CCNC(=O)[C@H]([C@@H](C)O)NC(=O)[C@H](CCN)NC(=O)[C@H](CCN)NC1=O [Ex. 80] (I: H-[Hiv]CY[Dab]E[dDab]SWS[Tle]C[Thr(ol)] / II: [Dab]T[Dab][Dab][Dab][dL]L[Dab][Dab]T; disulfide I:2-I:11; amide I:5-II:N; lactam II:4-II:C) | <1 |
| 0.125 (≈ 0.0534 µM) | 4 (≈ 1.71 µM) | 8 (≈ 3.42 µM) | 0.125 (≈ 0.0534 µM) | 0.25 (≈ 0.107 µM) | 0.125 (≈ 0.0534 µM) | 2 (≈ 0.854 µM) | 4 (≈ 1.71 µM) |  |  |  |  | CC(=O)N[C@H](C(=O)N[C@H](C(=O)N[C@@H](Cc1ccc(O)cc1)C(=O)N[C@H]1CSSC[C@@H](C(=O)N[C@H](C(=O)N[C@@H](CO)C(N)=O)C(C)C)NC(=O)[C@H](Cc2c[nH]c3ccccc23)NC(=O)[C@H](CCO)NC(=O)[C@@H](CCN)NC(=O)[C@H](CCC(=O)N[C@@H](CCN)C(=O)N[C@H](C(=O)N[C@@H](CCN)C(=O)N[C@H]2CCNC(=O)[C@H]([C@@H](C)O)NC(=O)[C@H](CCN)NC(=O)[C@H](CCN)NC(=O)[C@H](CC(C)C)NC(=O)[C@@H](CC(C)C)NC(=O)[C@H](CCN)NC2=O)[C@@H](C)O)NC1=O)[C@@H](C)O)C(C)C [Example 11] (I: Ac-VTYCE[dDab][hSer]WCVS-NH2 / II: [Dab]T[Dab][Dab][Dab][dL]L[Dab][Dab]T; disulfide I:4-I:9; amide I:5-II:N; lactam II:4-II:C) | 1 |
